Test [1] addresses cyclic AMP phosphodiesterase. Kind of test: Inhibition of cyclic AMP phosphodiesterase (Dixon plot). Type of test: biochemical. Conditions: homogenates of rat skeletal muscle; 0.31 µM cyclic AMP as substrate; estimated from Dixon plot; read-out: Apparent Ki value. The procedure: 4. Inhibition of cyclic AMP phosphodiesterase.
The activity of cyclic AMP phosphodiesterase in homogenates of rat skeletal muscle was measured in the presence of various concentrations of compounds of formula (I) using 0.31 µM cyclic AMP as substrate. The reciprocal of the reaction rate was plotted on the y axis against the concentration of each compound on the x axis (Dixon plot). The apparent Ki value was estimated by extrapolating the steeper linear portion of the Dixon plot to the x axis and obtaining the negative intercept on the x axis.

For test [2], the system named is rat ischaemic gastrocnemius muscle. Kind of test: Effect on oxygen tension (pO2) of rat ischaemic gastrocnemius muscle. Type of test: in vivo. Conditions: ischaemic hindlimb, femoral artery ligated 2-4 days previously.
The test system of test [3] is Mongolian gerbils. Briefly: Gerbil ischaemic deficit passive avoidance test (recall latency following transient forebrain ischaemia). Type of test: in vivo. The conditions noted are these: 3mg/kg p.o., seven administrations; gerbils after 5min bilateral carotid artery ligation; ischaemic controls 14, sham-ligated controls 33. The procedure:
2. The Gerbil Ischaemic Deficit Passive Avoidance Test.
Mongolian gerbils were conditioned to avoid entering a dark compartment by means of a footshock (maximally 50V, 2s duration) received when entering from the light section of a two compartment box. Recollection of the footshock was examined 24h later by replacing the gerbils in the two compartment box and measuring the recall latency, the time taken to re-enter the dark compartment.
Effect of test compound on recall latency in the gerbil following transient forebrain ischaemia.
A learning or memory deficit was induced in the gerbils by a transient (5min) bilateral carotid artery ligation, performed 24h prior to conditioning, under light hexobarbital anaesthesia.
Compounds, being examined for an effect on learning or memory in gerbils which had undergone carotid occlusion, were administered seven times during the experiment. The initial administration was during the period of forebrain ischaemia, the third and seventh administrations were 10min prior to conditioning and recall testing, respectively, and the remainder were given at intermediate time points.
A long recall latency indicates good information acquisition or retrival.

We go through seven compounds from patent EP0260127A2, “Xanthine derivatives, their preparation and pharmaceutical compositions containing them” (BEECHAM - WUELFING GmbH & Co. KG, priority 1986, dated 1988).

Structures are written as SMILES. Marks after values point to notes of the source that are not given here.

For `CCCCn1c(=O)n(CCC(C)O)c(=O)c2c1ncn2CC(C)=O` (centres unmarked) [Example E7, 1-(3-Hydroxybutyl)-3-n-butyl-7-(2-oxopropyl)xanthine], in test [1], the Ki was 13 µM.

For the compound `CC(O)CCn1c(=O)c2c(ncn2CC(C)O)n(CCC(C)O)c1=O` (centres unmarked) [Example E14, 1,3-bis-(3-Hydroxybutyl)-7-(2-hydroxypropyl)xanthine], the Ki in test [1] was 815 µM.

As to `CCCCn1c(=O)n(CCC(C)=O)c(=O)c2c1ncn2CC(C)O` (centres unmarked) [Example E8, 1-(3-Oxobutyl)-3-n-butyl-7-(2-hydroxypropyl) xanthine], in test [1], the Ki is 160 µM.

In the case of `CCCCn1c(=O)c2c(ncn2CC(C)O)n(CCC(C)O)c1=O` (centres unmarked) [Example E6, 1-n-Butyl-3-(3-hydroxybutyl)-7-(2-hydroxypropyl)xanthine], the “CHANGE in pO2 (Torr) (mean ± SEM)” value in test [2] (1.0 mg/kg i.v., n 8) turned out to be 2.2 ± 0.6 Torr. The Ki in test [1] is 94 µM. Moreover, the “Percentage of animals with recall latencies >60s” value in test [3] is given as 33*.

Consider `CCCCn1c(=O)n(CCC(C)O)c(=O)c2c1ncn2CC(C)O` (centres unmarked) [Example E5, 1-(3-Hydroxybutyl)-3-n-butyl-7-(2-hydroxypropyl) xanthine], for which the “CHANGE in pO2 (Torr) (mean ± SEM)” value in test [2] (5.0 mg/kg i.v., n 4) was 2.3 ± 1.6 Torr. Moreover, the Ki in test [1] was 128 µM. In test [3], the “Percentage of animals with recall latencies >60s” value is recorded as 32*.

In the case of `CCCCn1c(=O)c2c(ncn2CC(C)=O)n(CCC(C)O)c1=O` (centres unmarked) [Example E9, 1-n-Butyl-3-(3-hydroxybutyl)-7-(2-oxopropyl)xanthine], in test [1], the Ki is 13 µM.

For `CC(=O)Cn1cnc2c1c(=O)n(CCC(C)O)c(=O)n2CCC(C)O` (centres unmarked) [Example E11, 1,3-bis-(3-Hydroxybutyl)-7-(2-oxopropyl)xanthine], in test [1], the Ki is 81 µM.
